Tests used:
PNT1A cell line = test: Anti-proliferative SRB assay, PNT1A; format: cell-based; settings: Homo sapiens, PSMA −, Table S3, ± SD
Description: (§1) Half-maximal growth inhibitory concentrations (GI50) were determined using sulforhodamine B (SRB) assay as described elsewhere. In brief, cells were seeded in 96-wells at respective cell densities determined by their cell growth curves. After 24 h, the cells were treated in six replicates with medium or different concentrations of CHKA inhibitors in medium and incubated for another 72 h. On completion of incubation, the cells were fixed with 10% trichloroacetic acid (TCA) and stained with 0.4% SRB in 1% acetic acid. The stained protein was solubilized with 10 mM Tris base and optical density values were measured at 540 nm using a Multiskan® EX Micro plate photometer (Thermo Scientific, Loughborough, UK). Growth inhibition curves were plotted as percentage of the control groups and GI50 data were determined by least squares fitting method using GraphPad Prism 7.0. All the chemicals used in this experiment were obtained from Sigma-Aldrich (Gillingham, UK).

PC3 cell line = test: Anti-proliferative SRB assay, PC3; format: cell-based; settings: Homo sapiens, PC-3; PC3, PSMA −; Table S3, ± SD
Description: as §1

PI3Ka E545K + p85 = PI3Ka E545K + p85 (Homo sapiens, UniProt P42336, E545K); test: Lipid kinase screening (ADP-Glo), PI3Ka E545K + p85; format: biochemical
Description: (§2) The lipid kinase screening for ICL-CCIC-0019, CK14, CK145 (5), CK146 (4) and CK147 (8) (testing concentration for all compounds: 10 μM) was performed by MRC PPU International Centre for Kinase Profiling (Dundee, UK). The lipid kinase screening panel includes 15 human recombinant lipid kinases and the tests used Promega ADP Glo^TM High Throughput Assay kit (Promega, Southampton, UK). For each assay, reference compounds were used as quality control. Finally, mean percentage activity inhibited by compounds and standard deviation for all the repeats were calculated.

PI3K g = PI3K g (Homo sapiens, UniProt P48736); test: Lipid kinase screening (ADP-Glo), PI3K g; format: biochemical
Description: as §2

PIP5K2A = target: T1, PIP5K2A (Homo sapiens, UniProt P48426); test: Lipid kinase screening (ADP-Glo), PIP5K2A; format: biochemical
T1 sequence (P48426 1-406): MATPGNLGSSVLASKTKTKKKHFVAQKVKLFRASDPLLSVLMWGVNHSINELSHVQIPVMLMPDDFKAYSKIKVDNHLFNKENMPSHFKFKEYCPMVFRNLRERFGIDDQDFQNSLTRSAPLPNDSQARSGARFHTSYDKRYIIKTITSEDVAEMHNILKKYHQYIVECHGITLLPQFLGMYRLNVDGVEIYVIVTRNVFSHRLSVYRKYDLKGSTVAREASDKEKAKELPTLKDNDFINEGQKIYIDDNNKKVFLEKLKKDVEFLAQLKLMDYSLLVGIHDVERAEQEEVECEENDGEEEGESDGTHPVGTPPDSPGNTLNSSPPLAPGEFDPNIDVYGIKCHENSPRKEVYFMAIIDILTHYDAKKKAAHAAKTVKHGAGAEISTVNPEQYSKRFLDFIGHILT
Description: as §2

[1] = target: phosphatidylinositol 4-kinase beta (PIK4CB) (Homo sapiens, UniProt Q9UBF8); test: Lipid kinase screening (ADP-Glo), PIK4CB; format: biochemical
Description: as §2

SPHK1 = SPHK1 (Homo sapiens, UniProt Q9NYA1); test: Lipid kinase screening (ADP-Glo), SPHK1; format: biochemical
Description: as §2

Caco-2 cells = test: Anti-proliferative SRB assay, Caco-2; format: cell-based; settings: Homo sapiens; Caco-2, SRB, 72 h; Table S2, ± SD
Description: as §1

PI4K2a = PI4K2a (Homo sapiens, UniProt Q9BTU6); test: Lipid kinase screening (ADP-Glo), PI4K2a; format: biochemical
Description: as §2

LNCap cell line = test: Anti-proliferative SRB assay, LNCap; format: cell-based; settings: Homo sapiens, PSMA +, Table S3, ± SD
Description: as §1

HepG2 cells = test: Anti-proliferative SRB assay, HepG2; format: cell-based; settings: Homo sapiens, 72 h, Table S2, ± SD
Description: as §1

PI3Ka E524K + p85 = test: Lipid kinase screening (ADP-Glo), PI3Ka E524K + p85; format: biochemical, human; settings: 10 μM
Description: as §2

[2] = Human microsomal metabolic stability assay; format: in vitro ADME; settings: for PCT_LBF % (percentage of compound removed compared to liver blood flow) / microsomal CLint / half-life / Predicted in vivo clearance: human; for microsomal CLint / half-life: human liver microsome S9, human liver microsome S9; for microsomal CLint: read-out: Human Microsomal Metabolic Stability: Clint; for half-life: read-out: Human Microsomal Metabolic Stability: Half-life; for Predicted in vivo clearance: scaled from microsomal clearance (liver weight, microsomes per liver, liver blood flow)
Description: (§3) The ADME study for ICL-CCIC-0019, CK14, CK145 (5), CK146 (4) and CK147 (8) was performed by Charles River Drug Discovery Services (Essex, UK).
(§4) The predicted in vitro pharmacokinetic characteristics of compounds were evaluated by four ADME assays, namely kinetic solubility assay, metabolic stability assay using human liver microsome S9, permeability and efflux study using the Caco-2 cell line, and matrix stability assay using fasted state simulated gastric fluid (FaSSGF). All tested CHKA inhibitors were highly soluble (>150 μM) in 0.1 M PBS (2% DMSO) (Table 1). […] The in vivo clearance was calculated to predict the actual clearance in humans by scaling the clearance values, which takes into account liver weight, microsomes per liver and liver blood flow. […] In Caco-2 cell permeability assay, drug permeability was investigated and presented as apparent permeability coefficients (Papp) in A to B (A-B, apical to basolateral direction) and B to A (B-A, basolateral to apical direction).

A549 cells = test: Anti-proliferative SRB assay, A549; format: cell-based; settings: Homo sapiens, 72 h, Table S2, ± SD
Description: as §1

R1AD1 cell line = test: Anti-proliferative SRB assay, R1AD1; format: cell-based; settings: Homo sapiens; R1AD1, PSMA −; Table S3, ± SD
Description: as §1

CHK b (CHKB) = CHK b (CHKB) (Homo sapiens, UniProt Q9Y259); test: Lipid kinase screening (ADP-Glo), CHKB; format: biochemical
Description: as §2

R1-D567 cell line = test: Anti-proliferative SRB assay, R1-D567; format: cell-based; settings: Homo sapiens; R1-D567, PSMA −; Table S3, ± SD
Description: as §1

[3] = Matrix stability assay in fasted state simulated gastric fluid (FaSSGF); format: in vitro ADME; settings: for Matrix Stability: Remaining %: FaSSGF; for half-life: fasted state simulated gastric fluid (FaSSGF), fasted state simulated gastric fluid, pH 1.6, read-out: FaSSGF stability Half-life (converted)
Description: as §3, §4

C4-2B cell line = test: Anti-proliferative SRB assay, C4-2B; format: cell-based; settings: Homo sapiens, PSMA +, Table S3, ± SD
Description: as §1

DGK z = DGK z (Homo sapiens, UniProt Q13574); test: Lipid kinase screening (ADP-Glo), DGK z; format: biochemical
Description: as §2

PI3K b = PI3K b (Homo sapiens, UniProt P42338); test: Lipid kinase screening (ADP-Glo), PI3K b; format: biochemical
Description: as §2

HCT-116 cells = test: Anti-proliferative SRB assay, HCT-116; format: cell-based; settings: Homo sapiens
Description: as §1

Kinetic solubility assay = format: physicochemical; settings: 0.1 M PBS (2% DMSO), aqueous buffer, kinetic from dmso stock; read-out: Kinetic Solubility: Solubility
Description: as §3, §4

[4] = HCT-116, PSMA −, Table S3, ± SD
[5] = HCT-116, SRB, 72 h, Table S2, ± SD

Sequence of PI3Ka E545K + p85 (P42336 whole entry E545K): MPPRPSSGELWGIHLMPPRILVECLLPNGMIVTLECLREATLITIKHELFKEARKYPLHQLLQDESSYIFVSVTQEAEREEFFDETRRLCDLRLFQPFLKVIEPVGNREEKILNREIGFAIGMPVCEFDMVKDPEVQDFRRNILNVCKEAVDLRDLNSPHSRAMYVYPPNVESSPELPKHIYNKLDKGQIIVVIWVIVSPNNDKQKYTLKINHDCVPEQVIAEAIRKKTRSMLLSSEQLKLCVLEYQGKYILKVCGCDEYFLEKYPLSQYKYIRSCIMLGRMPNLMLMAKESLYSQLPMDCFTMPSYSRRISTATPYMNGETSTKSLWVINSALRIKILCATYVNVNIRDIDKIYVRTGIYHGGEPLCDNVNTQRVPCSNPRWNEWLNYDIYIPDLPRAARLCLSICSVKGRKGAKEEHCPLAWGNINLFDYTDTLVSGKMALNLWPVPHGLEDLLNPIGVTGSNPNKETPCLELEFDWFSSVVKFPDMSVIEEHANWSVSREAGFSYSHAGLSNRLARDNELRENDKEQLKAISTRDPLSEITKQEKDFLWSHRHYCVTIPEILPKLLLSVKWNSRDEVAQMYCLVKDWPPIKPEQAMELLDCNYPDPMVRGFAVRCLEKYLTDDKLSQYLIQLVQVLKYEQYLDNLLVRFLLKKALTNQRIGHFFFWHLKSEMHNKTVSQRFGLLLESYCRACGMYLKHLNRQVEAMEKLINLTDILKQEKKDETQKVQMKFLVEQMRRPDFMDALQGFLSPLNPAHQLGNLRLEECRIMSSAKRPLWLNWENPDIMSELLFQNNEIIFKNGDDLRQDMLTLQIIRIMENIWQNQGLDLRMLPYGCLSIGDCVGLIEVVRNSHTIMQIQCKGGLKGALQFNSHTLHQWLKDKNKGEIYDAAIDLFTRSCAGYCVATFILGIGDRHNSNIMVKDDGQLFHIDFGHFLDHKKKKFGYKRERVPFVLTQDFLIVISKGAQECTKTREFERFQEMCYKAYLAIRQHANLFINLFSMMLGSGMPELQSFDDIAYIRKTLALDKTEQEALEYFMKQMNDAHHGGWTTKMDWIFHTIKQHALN
Sequence of PI3Ka E545K + p85 (P27986 whole entry partner): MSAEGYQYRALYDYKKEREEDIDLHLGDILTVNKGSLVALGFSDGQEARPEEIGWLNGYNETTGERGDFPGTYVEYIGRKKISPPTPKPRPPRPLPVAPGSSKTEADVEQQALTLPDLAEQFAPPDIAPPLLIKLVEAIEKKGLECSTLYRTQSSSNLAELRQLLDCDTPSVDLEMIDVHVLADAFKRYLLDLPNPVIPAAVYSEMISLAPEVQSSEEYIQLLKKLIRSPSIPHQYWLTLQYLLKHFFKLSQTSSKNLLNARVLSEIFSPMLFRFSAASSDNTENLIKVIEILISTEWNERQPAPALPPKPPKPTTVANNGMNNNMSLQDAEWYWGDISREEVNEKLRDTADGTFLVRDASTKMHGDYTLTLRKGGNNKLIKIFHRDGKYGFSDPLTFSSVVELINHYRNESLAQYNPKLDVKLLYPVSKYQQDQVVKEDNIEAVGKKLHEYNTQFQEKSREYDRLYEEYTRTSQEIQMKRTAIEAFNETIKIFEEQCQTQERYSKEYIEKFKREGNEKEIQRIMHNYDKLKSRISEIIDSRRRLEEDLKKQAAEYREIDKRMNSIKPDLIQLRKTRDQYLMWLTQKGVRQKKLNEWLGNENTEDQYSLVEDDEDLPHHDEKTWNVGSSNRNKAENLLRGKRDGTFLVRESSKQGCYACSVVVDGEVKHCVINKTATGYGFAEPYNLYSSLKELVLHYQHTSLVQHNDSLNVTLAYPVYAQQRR
Sequence of PI3K g (P48736 whole entry): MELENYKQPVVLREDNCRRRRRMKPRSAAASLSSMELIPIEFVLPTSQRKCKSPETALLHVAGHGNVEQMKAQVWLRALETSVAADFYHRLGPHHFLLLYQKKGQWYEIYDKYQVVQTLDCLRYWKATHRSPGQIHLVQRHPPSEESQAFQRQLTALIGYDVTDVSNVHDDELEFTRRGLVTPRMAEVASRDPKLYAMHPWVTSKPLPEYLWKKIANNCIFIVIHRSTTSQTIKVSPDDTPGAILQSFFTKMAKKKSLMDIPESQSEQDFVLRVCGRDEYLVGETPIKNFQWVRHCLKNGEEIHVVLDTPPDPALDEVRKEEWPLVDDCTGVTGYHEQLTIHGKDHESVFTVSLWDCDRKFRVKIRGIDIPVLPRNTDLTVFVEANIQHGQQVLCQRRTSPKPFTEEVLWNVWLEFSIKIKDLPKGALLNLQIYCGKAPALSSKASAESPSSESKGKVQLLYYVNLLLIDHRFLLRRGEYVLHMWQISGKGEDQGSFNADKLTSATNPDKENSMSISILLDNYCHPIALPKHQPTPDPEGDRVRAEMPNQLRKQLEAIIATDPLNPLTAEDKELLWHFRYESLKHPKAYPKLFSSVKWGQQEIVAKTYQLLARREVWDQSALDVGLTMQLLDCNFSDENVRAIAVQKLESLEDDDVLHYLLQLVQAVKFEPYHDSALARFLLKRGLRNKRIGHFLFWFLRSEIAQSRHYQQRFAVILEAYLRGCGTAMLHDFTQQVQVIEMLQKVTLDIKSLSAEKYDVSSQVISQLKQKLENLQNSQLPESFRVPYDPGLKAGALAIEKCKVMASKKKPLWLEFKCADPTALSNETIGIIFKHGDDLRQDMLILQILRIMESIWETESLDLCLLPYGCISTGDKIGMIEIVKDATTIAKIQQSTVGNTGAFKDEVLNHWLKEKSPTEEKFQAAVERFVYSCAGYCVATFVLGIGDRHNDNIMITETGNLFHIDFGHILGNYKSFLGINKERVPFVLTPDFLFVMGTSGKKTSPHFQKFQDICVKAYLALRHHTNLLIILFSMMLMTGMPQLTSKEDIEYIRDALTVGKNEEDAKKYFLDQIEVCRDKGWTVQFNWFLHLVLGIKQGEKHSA
Sequence of DGK z (Q13574 whole entry): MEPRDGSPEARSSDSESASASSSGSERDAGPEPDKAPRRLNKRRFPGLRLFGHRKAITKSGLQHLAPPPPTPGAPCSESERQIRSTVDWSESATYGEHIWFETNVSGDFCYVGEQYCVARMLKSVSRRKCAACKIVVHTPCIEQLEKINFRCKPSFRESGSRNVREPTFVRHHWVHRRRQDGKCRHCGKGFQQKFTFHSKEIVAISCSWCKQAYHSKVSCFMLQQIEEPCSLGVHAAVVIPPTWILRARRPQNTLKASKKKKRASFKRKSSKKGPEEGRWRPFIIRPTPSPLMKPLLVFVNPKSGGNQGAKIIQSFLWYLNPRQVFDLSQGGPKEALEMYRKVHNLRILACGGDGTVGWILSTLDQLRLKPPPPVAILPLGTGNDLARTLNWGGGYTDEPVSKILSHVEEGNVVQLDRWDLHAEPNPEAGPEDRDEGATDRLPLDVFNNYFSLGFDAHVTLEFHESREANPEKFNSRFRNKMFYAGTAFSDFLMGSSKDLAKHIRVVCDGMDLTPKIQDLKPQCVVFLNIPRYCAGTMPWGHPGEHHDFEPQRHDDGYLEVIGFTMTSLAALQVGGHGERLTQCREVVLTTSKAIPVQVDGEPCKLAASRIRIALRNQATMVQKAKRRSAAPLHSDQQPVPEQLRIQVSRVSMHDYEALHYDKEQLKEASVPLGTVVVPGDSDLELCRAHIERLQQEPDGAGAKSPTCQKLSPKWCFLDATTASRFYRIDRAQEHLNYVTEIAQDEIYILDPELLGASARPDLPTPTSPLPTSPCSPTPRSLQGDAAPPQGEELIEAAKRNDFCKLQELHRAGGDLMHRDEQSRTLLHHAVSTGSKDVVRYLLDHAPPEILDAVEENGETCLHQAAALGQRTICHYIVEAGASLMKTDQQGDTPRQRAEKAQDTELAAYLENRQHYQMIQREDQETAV
Sequence of PI4K2a (Q9BTU6 whole entry): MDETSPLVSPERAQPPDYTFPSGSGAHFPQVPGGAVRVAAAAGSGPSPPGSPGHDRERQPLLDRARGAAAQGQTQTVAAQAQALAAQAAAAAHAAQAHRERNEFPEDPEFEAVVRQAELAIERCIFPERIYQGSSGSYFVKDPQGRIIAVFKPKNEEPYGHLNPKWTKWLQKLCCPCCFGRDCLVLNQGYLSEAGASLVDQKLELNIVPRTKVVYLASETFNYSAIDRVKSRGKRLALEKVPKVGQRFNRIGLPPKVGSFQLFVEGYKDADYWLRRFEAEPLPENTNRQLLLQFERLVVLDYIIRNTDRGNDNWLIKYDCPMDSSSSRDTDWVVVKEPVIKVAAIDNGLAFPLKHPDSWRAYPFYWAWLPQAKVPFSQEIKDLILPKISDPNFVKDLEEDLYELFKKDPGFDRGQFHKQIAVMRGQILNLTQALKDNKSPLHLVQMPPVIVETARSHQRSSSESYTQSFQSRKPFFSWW
Sequence of SPHK1 (Q9NYA1 whole entry): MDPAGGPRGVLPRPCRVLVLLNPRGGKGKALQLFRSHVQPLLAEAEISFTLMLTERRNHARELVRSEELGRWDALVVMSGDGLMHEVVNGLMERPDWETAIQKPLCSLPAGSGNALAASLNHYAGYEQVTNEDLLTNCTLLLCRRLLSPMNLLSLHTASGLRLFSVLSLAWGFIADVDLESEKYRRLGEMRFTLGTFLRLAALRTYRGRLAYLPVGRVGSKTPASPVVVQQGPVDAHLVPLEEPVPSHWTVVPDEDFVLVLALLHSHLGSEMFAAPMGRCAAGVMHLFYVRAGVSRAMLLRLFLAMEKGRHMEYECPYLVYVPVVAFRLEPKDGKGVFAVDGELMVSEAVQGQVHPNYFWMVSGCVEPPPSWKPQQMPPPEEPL

| Compound | GI50 (PNT1A cell line) [µM] | GI50 (PC3 cell line) [µM] | inhibition at 10 µM (PI3Ka E545K + p85) [%] | inhibition at 10 µM (PI3K g) [%] | inhibition at 10 µM (PIP5K2A) [%] | inhibition at 10 µM [1] [%] | inhibition at 10 µM (SPHK1) [%] | GI50 (Caco-2 cells) [µM] | inhibition at 10 µM (PI4K2a) [%] | GI50 (LNCap cell line) [µM] | GI50 (HepG2 cells) [µM] | % Inhibition PI3Ka E524K + p85 (PI3Ka E524K + p85) [%] | Human Microsomal Metabolic Stability: Remaining % ([2]; human liver microsome S9) [%] | Predicted in vivo clearance [2] [mL/min/kg] | GI50 (A549 cells) [µM] | GI50 (R1AD1 cell line) [µM] | inhibition at 10 µM (CHK b (CHKB)) [%] | GI50 (R1-D567 cell line) [µM] | Matrix Stability: Remaining % [3] [%] | half-life [3] [h] | also measured |
| --- | --- | --- | --- | --- | --- | --- | --- | --- | --- | --- | --- | --- | --- | --- | --- | --- | --- | --- | --- | --- | --- |
| CN(C)c1cc[n+](CCCCCCCCCCCC[n+]2ccc(N(C)C)cc2)cc1 [ICL-CCIC-0019] | 0.47 ± 0.08 | 0.79 ± 0.03 | -6.1 | 4.9 | -16.1 | -24.1 | -3.7 | 1.19 ± 0.04 | -13.9 | 0.3 ± 0.06 | 0.18 ± 0.01 | 1.6 | 92 | <10 | 0.05 ± 0.005 | 0.4 ± 0.01 | -28.6 | 0.32 | 117 | > 10 | PCT_LBF % (percentage of compound removed compared to liver blood flow) [2]: <45%; microsomal CLint [2]: < 14 µL/min/mg; half-life [2]: > 1.67 h; GI50 (C4-2B cell line): 1.2 ± 0.31 µM; inhibition at 10 µM (DGK z): 7.5%; inhibition at 10 µM (PI3K b): -39.6%; GI50 (HCT-116 cells; [4]): 0.42 ± 0.03 µM; GI50 (HCT-116 cells; [5]): 0.42 ± 0.03 µM; solubility kinetic (Kinetic solubility assay): 161 µM |
| CC(=O)NCCCCC(NC(=O)OC(C)(C)C)C(=O)N1CCN(c2cc[n+](CCCCCCCCCCCCCC[n+]3ccc(N(C)C)cc3)cc2)CC1 (stereo not drawn) [CK145] | 63.6 ± 10.4 | 84.9 ± 7.03 | -1.8 | 2.9 | 0.4 | 51 | 0.6 | 10.8 ± 1 | -11.4 | 39 ± 8.56 | 2.25 ± 0.06 | −0.1 | 2 | 19 | 2.47 ± 0.06 | 53.4 ± 2.27 | -18.1 | 40.4 ± 4.56 | 74 | 9.2 | % Inhibition PIK4CB ([1]; 10 μM): 50.6%; metabolic stability (in words) ([2]; human liver microsome S9): Rapid decomposition; FaSSGF stability (in words) ([3]; low pH (1.6)): Rapid decomposition; GI50 (C4-2B cell line): 63 ± 12.1 µM; inhibition at 10 µM (DGK z): 11.6%; inhibition at 10 µM (PI3K b): -15.8%; GI50 (HCT-116 cells; [4]): 103 ± 6.27 µM; GI50 (HCT-116 cells; [5]): 6.63 ± 0.2 µM; solubility kinetic (Kinetic solubility assay): 178 µM |
| CN(C)c1cc[n+](CCCCCCCCCCCCCC[n+]2ccc(N3CCNCC3)cc2)cc1 [CK146] | 3 ± 0.26 | 4.73 ± 0.81 | -1 | 6.7 | 1.4 | 47 | 2.1 | 3.09 ± 0.05 | -13.4 | 1.92 ± 0.99 | 0.21 ± 0.01 | −6.5 | 127 | <10 | 2.07 ± 0.2 | 5.67 ± 2.33 | -49 | 0.87 ± 0.03 | 92 | > 10 | PCT_LBF % (percentage of compound removed compared to liver blood flow) [2]: <45%; microsomal CLint [2]: < 14 µL/min/mg; half-life [2]: > 1.67 h; GI50 (C4-2B cell line): 4.22 ± 0.43 µM; inhibition at 10 µM (DGK z): 8.6%; inhibition at 10 µM (PI3K b): -45.9%; GI50 (HCT-116 cells; [4]): 4.76 ± 0.8 µM; GI50 (HCT-116 cells; [5]): 4.76 ± 0.8 µM; solubility kinetic (Kinetic solubility assay): 158 µM |

Source: publication PMC8309005, “Novel Non-Congeneric Derivatives of the Choline Kinase Alpha Inhibitor ICL-CCIC-0019” (Pharmaceutics, 2021)
